Each compound was assayed against T1, hMC2 receptor (Homo sapiens, UniProt Q01718) (assay: hMC2 membrane binding assay ([125I]ACTH (1-39) Tyr23, SPA)). Conditions: crude membranes of CRE-bla-CHO-K1 cells expressing hMC2 receptor and hMRAP; 0.2 nM [125I]ACTH (1-39) Tyr23; 1.5 hours at room temperature; read-out: MC2R binding potency.
T1 construct: host or cells: CRE-bla-CHO-K1 cells
T1 sequence (Q01718 whole entry): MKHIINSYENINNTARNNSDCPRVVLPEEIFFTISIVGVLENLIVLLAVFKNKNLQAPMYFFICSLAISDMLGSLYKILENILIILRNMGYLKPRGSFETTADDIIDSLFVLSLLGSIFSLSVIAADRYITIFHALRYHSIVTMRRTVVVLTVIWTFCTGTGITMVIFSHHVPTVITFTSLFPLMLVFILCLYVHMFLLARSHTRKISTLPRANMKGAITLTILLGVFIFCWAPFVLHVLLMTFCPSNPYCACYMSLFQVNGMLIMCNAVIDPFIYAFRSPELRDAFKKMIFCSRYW
T1 sequence (Q8TCY5 whole entry partner): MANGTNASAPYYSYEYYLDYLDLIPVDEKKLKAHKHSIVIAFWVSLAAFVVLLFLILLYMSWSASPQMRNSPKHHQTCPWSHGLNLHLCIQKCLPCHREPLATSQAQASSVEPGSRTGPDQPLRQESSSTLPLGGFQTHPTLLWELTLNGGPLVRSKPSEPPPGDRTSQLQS
Description: Crude membrane fractions are prepared from CRE-bla-CHO-K1 cells stably expressing hMC2 receptor and hMRAP accessory protein (Thermo Fisher). The cells are grown to 85-100% confluence on standard tissue culture dishes in GlutaMax DMEM growth media (Gibco) with following additives: 10% dialyzed FBS (Gemini), 0.1 mM NEAA (Gibco), 25 mM HEPES (Gibco), 5 μg/mL blasticidin (Goldbio), 100 μg/mL zeocin (Invitrogen), 600 μg/mL hygromycin (Goldbio). To prepare membranes, cells are scraped and collected in 1× Dulbecco's phosphate buffered saline (Corning) and then pelleted at 1000 RPM's. The cell pellet is reconstituted in membrane preparation buffer (20 mM HEPES, 6 mM MgCl2 and 1 mM EGTA, protease inhibitor tablets (Pierce) adjusted to pH 7.4), homogenized using a dounce homogenizer, and the resulting membrane fraction is pelleted by centrifugation at 12,000 RPM's. The membrane pellet is resuspended in membrane preparation buffer, snap freezed and stored at −80° C. for later use.
The hMC2 membrane binding assay utilizes the following components: radiolabel [^125I]ACTH (1-39) Tyr23 (PerkinElmer), wheatgerm agglutinin coated PVT SPA beads (PerkinElmer), crude hMC2R membranes, and compounds. Briefly hMC2R membranes are incubated with SPA beads in binding assay buffer (50 mM HEPES, 5 mM MgCl2, 1 mM CaCl2), 0.2% BSA, protease inhibitor tablets (Pierce) adjusted to pH7.4) prior to assay initiation. […] Assay plates are read using a Top Count NXT and Ki values for compounds are determined using a GraphPad Prism 6 non-linear regression analysis.
With `CCOc1ncccc1-c1ccc2c(n1)N(C(=O)CCN)CC21CCN(c2ccc(C(F)(F)F)cc2C#N)CC1` [1-28, 2-[1′-(3-aminopropanoyl)-6′-(2-ethoxypyridin-3-yl)-1′,2′-dihydrospiro[piperidine-4,3′-pyrrolo[2,3-b]pyridin]-1-yl]-5-(trifluoromethyl)benzonitrile] the Ki was under 10 nM.
`CCOc1ncccc1-c1ccc2c(n1)N(CCN)CC21CCN(c2ccc(C(F)(F)F)cc2C#N)CC1` [1-29, 2-[1′-(2-aminoethyl)-6′-(2-ethoxypyridin-3-yl)-1′,2′-dihydrospiro[piperidine-4,3′-pyrrolo[2,3-b]pyridin]-1-yl]-5-(trifluoromethyl)benzonitrile] was tested, and the Ki was under 10 nM.
Compound `CCOc1ncccc1-c1ccc2c(c1)N(C(=O)NC[C@@H](C)N)CC21CCN(c2ccc(C(F)(F)F)cc2C#N)CC1` [1-30, N-[(2R)-2-aminopropyl]-1′-[2-cyano-4-(trifluoromethyl)phenyl]-6-(2-ethoxypyridin-3-yl)-1,2-dihydrospiro[indole-3,4′-piperidine]-1-carboxamide] has a Ki of 10 to 100 nM.
In the case of `CCOc1ncccc1-c1ccc2c(c1)N(C(=O)NC[C@H](C)N)CC21CCN(c2ccc(C(F)(F)F)cc2C#N)CC1` [1-31, N-[(2S)-2-aminopropyl]-1′-[2-cyano-4-(trifluoromethyl)phenyl]-6-(2-ethoxypyridin-3-yl)-1,2-dihydrospiro[indole-3,4′-piperidine]-1-carboxamide], the Ki is reported as 10 to 100 nM.
Compound `CCOc1ncccc1-c1ccc2c(c1)N(C(=O)N[C@@H]1CCNC1)CC21CCN(c2ccc(C(F)(F)F)cc2C#N)CC1` [1-32, 1′-[2-cyano-4-(trifluoromethyl)phenyl]-6-(2-ethoxypyridin-3-yl)-N-[(3R)-pyrrolidin-3-yl]-1,2-dihydrospiro[indole-3,4′-piperidine]-1-carboxamide] has a Ki of 10 to 100 nM.
Compound `CCOc1ncccc1-c1ccc2c(c1)N(C(=O)N[C@H]1CCNC1)CC21CCN(c2ccc(C(F)(F)F)cc2C#N)CC1` [1-33, 1′-[2-cyano-4-(trifluoromethyl)phenyl]-6-(2-ethoxypyridin-3-yl)-N-[(3S)-pyrrolidin-3-yl]-1,2-dihydrospiro[indole-3,4′-piperidine]-1-carboxamide] has a Ki of 10 to 100 nM.
`CCOc1ncccc1-c1ccc2c(c1)N(C(=O)CCN)CC21CCN(c2ccc(Cl)cc2C#N)CC1` [1-34, 2-[1-(3-aminopropanoyl)-6-(2-ethoxypyridin-3-yl)-1,2-dihydrospiro[indole-3,4′-piperidin]-1′-yl]-5-chlorobenzonitrile] gave a Ki of 10 to 100 nM.
In the case of `N#Cc1cc(C(F)(F)F)ccc1N1CCC2(CC1)CN(C(=O)CCN)c1cc(-c3ccccc3CO)ccc12` [1-35, 2-[1-(3-aminopropanoyl)-6-[2-(hydroxymethyl)phenyl]-1,2-dihydrospiro[indole-3,4′-piperidin]-1′-yl]-5-(trifluoromethyl)benzonitrile], the Ki is reported as 10 to 100 nM.
With `CCOc1ncccc1-c1ccc2c(c1)N(C(=O)CCN)CC21CCN(c2cc(OC)cc(C(F)(F)F)n2)CC1` [1-36, 3-amino-1-[6-(2-ethoxypyridin-3-yl)-1′-[4-methoxy-6-(trifluoromethyl)pyridin-2-yl]-1,2-dihydrospiro[indole-3,4′-piperidin]-1-yl]propan-1-one] the Ki was 1000 to 10000 nM.
Work on `CCOc1ncccc1-c1ccc2c(c1)N(S(=O)(=O)CCN)CC21CCN(c2ccc(C(F)(F)F)cc2C#N)CC1` [1-37, 2-[1-(2-aminoethanesulfonyl)-6-(2-ethoxypyridin-3-yl)-1,2-dihydrospiro[indole-3,4′-piperidin]-1′-yl]-5-(trifluoromethyl)benzonitrile] yielded a Ki of 10 to 100 nM.
`CCOc1ncccc1-c1ccc2c(c1)N(C[C@H]1CCN1)CC21CCN(c2ccc(C(F)(F)F)cc2C#N)CC1` [1-38, 2-(1-{[(2R)-azetidin-2-yl]methyl}-6-(2-ethoxypyridin-3-yl)-1,2-dihydrospiro[indole-3,4′-piperidin]-1′-yl)-5-(trifluoromethyl)benzonitrile] was tested, and the Ki was 10 to 100 nM.
With `CCOc1ncccc1-c1ccc2c(c1)N(C[C@@H]1CCN1)CC21CCN(c2ccc(C(F)(F)F)cc2C#N)CC1` [1-39, 2-(1-{[(2S)-azetidin-2-yl]methyl}-6-(2-ethoxypyridin-3-yl)-1,2-dihydrospiro[indole-3,4′-piperidin]-1′-yl)-5-(trifluoromethyl)benzonitrile] the Ki was 10 to 100 nM.
`CCOc1ncccc1-c1ccc2c(c1)N([C@H](C)CN)CC21CCN(c2ccc(C(F)(F)F)cc2C#N)CC1` [1-40, 2-{1-[(2R)-1-aminopropan-2-yl]-6-(2-ethoxypyridin-3-yl)-1,2-dihydrospiro[indole-3,4′-piperidin]-1′-yl}-5-(trifluoromethyl)benzonitrile] gave a Ki of under 10 nM.
Work on `CCOc1ncccc1-c1ccc2c(c1)N([C@@H](C)CN)CC21CCN(c2ccc(C(F)(F)F)cc2C#N)CC1` [1-41, 2-{1-[(2S)-1-aminopropan-2-yl]-6-(2-ethoxypyridin-3-yl)-1,2-dihydrospiro[indole-3,4′-piperidin]-1′-yl}-5-(trifluoromethyl)benzonitrile] yielded a Ki of 10 to 100 nM.
For `C[C@@H](N)CN1CC2(CCN(c3ccc(C(F)(F)F)cc3C#N)CC2)c2ccc(-c3ccccc3CO)cc21` [1-42, 2-{1-[(2R)-2-aminopropyl]-6-[2-(hydroxymethyl)phenyl]-1,2-dihydrospiro[indole-3,4′-piperidin]-1′-yl}-5-(trifluoromethyl)benzonitrile], the Ki was 10 to 100 nM.
Compound `CCOc1ncccc1-c1ccc2c(c1)N(C(=O)CCN)CC21CCN(c2ccc(OC)nc2C#N)CC1` [1-43, 3-[1-(3-aminopropanoyl)-6-(2-ethoxypyridin-3-yl)-1,2-dihydrospiro[indole-3,4′-piperidin]-1′-yl]-6-methoxypyridine-2-carbonitrile] has a Ki of 10 to 100 nM.
Work on `CCOc1ccc(N2CCC3(CC2)CN(C(=O)CCN)c2cc(-c4cccnc4OCC)ccc23)c(C#N)n1` [1-44, 3-[1-(3-aminopropanoyl)-6-(2-ethoxypyridin-3-yl)-1,2-dihydrospiro[indole-3,4′-piperidin]-1′-yl]-6-ethoxypyridine-2-carbonitrile] yielded a Ki of 10 to 100 nM.
In the case of `CCOc1ncccc1-c1ccc2c(c1)N(C[C@@H](C)N)CC21CCN(c2ccc(Cl)cc2C(F)F)CC1` [1-45, (2R)-1-{1′-[4-chloro-2-(difluoromethyl)phenyl]-6-(2-ethoxypyridin-3-yl)-1,2-dihydrospiro[indole-3,4′-piperidin]-1-yl}propan-2-amine], the Ki is reported as 10 to 100 nM.
`CCOc1ncccc1-c1ccc2c(n1)N(C[C@@H](C)N)CC21CCN(c2ccc(C(F)(F)F)cc2C#N)CC1` [1-46, 2-{1′-[(2R)-2-aminopropyl]-6′-(2-ethoxypyridin-3-yl)-1′,2′-dihydrospiro[piperidine-4,3′-pyrrolo[2,3-b]pyridin]-1-yl}-5-(trifluoromethyl)benzonitrile] gave a Ki of under 10 nM.
In the case of `CCOc1ncccc1-c1ccc2c(n1)N(C(=O)[C@@H](C)N)CC21CCN(c2ccc(C(F)(F)F)cc2C#N)CC1` [1-47, 2-{1′-[(2R)-2-aminopropanoyl]-6′-(2-ethoxypyridin-3-yl)-1′,2′-dihydrospiro[piperidine-4,3′-pyrrolo[2,3-b]pyridin]-1-yl}-5-(trifluoromethyl)benzonitrile], the Ki is reported as 10 to 100 nM.
`CCOc1ncccc1-c1ccc2c(n1)N(C(=O)[C@H](C)N)CC21CCN(c2ccc(C(F)(F)F)cc2C#N)CC1` [1-48, 2-{1′-[(2S)-2-aminopropanoyl]-6′-(2-ethoxypyridin-3-yl)-1′,2′-dihydrospiro[piperidine-4,3′-pyrrolo[2,3-b]pyridin]-1-yl}-5-(trifluoromethyl)benzonitrile] gave a Ki of under 10 nM.
For `CCOc1ncccc1-c1ccc2c(n1)N(C(=O)[C@@H]1CCNC1)CC21CCN(c2ccc(C(F)(F)F)cc2C#N)CC1` [1-49, 2-[6′-(2-ethoxypyridin-3-yl)-1′-[(3R)-pyrrolidine-3-carbonyl]-1′,2′-dihydrospiro[piperidine-4,3′-pyrrolo[2,3-b]pyridin]-1-yl]-5-(trifluoromethyl)benzonitrile], the Ki was under 10 nM.
In the case of `CCOc1ncccc1-c1ccc2c(n1)N(C(=O)CCNC)CC21CCN(c2ccc(C(F)(F)F)cc2C#N)CC1` [1-50, 2-[6′-(2-ethoxypyridin-3-yl)-1′-[3-(methylamino)propanoyl]-1′,2′-dihydrospiro[piperidine-4,3′-pyrrolo[2,3-b]pyridin]-1-yl]-5-(trifluoromethyl)benzonitrile], the Ki is reported as under 10 nM.
For `CCOc1ncccc1-c1ccc2c(n1)N(C[C@H](N)CO)CC21CCN(c2ccc(C(F)(F)F)cc2C#N)CC1` [1-51, 2-{1′-[(2S)-2-amino-3-hydroxypropyl]-6′-(2-ethoxypyridin-3-yl)-1′,2′-dihydrospiro[piperidine-4,3′-pyrrolo[2,3-b]pyridin]-1-yl}-5-(trifluoromethyl)benzonitrile], the Ki was under 10 nM.
In the case of `CCOc1ncccc1-c1ccc2c(n1)N([C@@H]1CCNC1)CC21CCN(c2ccc(C(F)(F)F)cc2C#N)CC1` [1-52, 2-[6′-(2-ethoxypyridin-3-yl)-1′-[(3R)-pyrrolidin-3-yl]-1′,2′-dihydrospiro[piperidine-4,3′-pyrrolo[2,3-b]pyridin]-1-yl]-5-(trifluoromethyl)benzonitrile], the Ki is reported as under 10 nM.

Reference: US12466829B2, “Spirocyclic piperidine melanocortin subtype-2 receptor (MC2R) antagonists and uses thereof” (Crinetics Pharmaceuticals, Inc., priority 2019, dated 2025)
